# Results: patent publication US4197407A, “Prostenoic acids and esters” (American Cyanamid Company, priority 1977, dated 1980)
# Legend:
# [1] = tested on: mean arterial blood pressure; assay: Hypotensive activity in anesthetized rats; format: in vivo, Male Wistar strain rats; conditions: intravenous infusion over one minute
# Method: This procedure is a modification of the technique described by Pike, et al., Prostaglandins, Nobel Symposium 2, Stockholm, June, 1966, pg. 165.
# Male Wistar strain rats (Royal Hart Farms) averaging approximately 250 g in weight are fastened to rat boards in a supine position by means of canvas vests and limb ties. The animals are anesthetized with a 900 mg/kg intraperitoneal dose of urethane. The left carotid artery is cannulated with polyethylene 50 tubing to measure arterial blood pressure and the left external jugular vein is cannulated with polyethylene 50 tubing for drug infusion. The animals are allowed to equilibrate for 15-30 minutes. The test compound is infused in 0.5 ml of saline, over a one minute period, at the indicated dose level, using a Harvard model 940 infusion pump and a 6 cc syringe at speed 5. Each drug dose is flushed with 0.4 ml of saline. The mean arterial blood pressure is measured before and after drug administration using a Statham model P23Db pressure transducer and a Brush model 260 recorder. The percent depression in mean arterial blood pressure and the duration of at least a 10% depression induced by representative compounds of this invention are recorded in Table C.
# [2] = tested on: collagen induced platelet aggregation; assay: Inhibition of platelet aggregation in vitro, collagen induced; format: cell-based, Human; design: key: (-): Inhibition; (+): No inhibition
# Excerpt: (§1) It is well known that platelet aggregation inhibitors may be useful as anti-thrombotic drugs. Inhibition of platelet aggregation can be conveniently measured in vitro by monitoring changes in optical density and/or light transmission in platelet rich plasma upon addition of suitable aggregating agents such as adenosine diphosphate, epinephrine, thrombin or collagen. Alternatively, platelet aggregation can be measured in vitro using platelet rich plasma obtained at various time intervales from animals given inhibitors by an oral or parenteral route.
# (§2) Human […] is incubated with modified Tyrode's solution in a proportion of 40-50% human […]. The test compounds are added at varying concentrations and after 5 minutes incubation, an aggregating agent such as adenosine diphosphate or collagen is added. The change in optical density (light transmission) is monitored by eye and inhibition is recorded as a (-) or lack of inhibition is recorded as a (+). Test compounds are considered active if they inhibit adenosine diphosphate or collagen induced aggregation at a concentration of 25 mcg/ml or less within 5-10 minutes.
# [3] = tested on: adenosine diphosphate induced platelet aggregation; assay: Inhibition of platelet aggregation in vitro, adenosine diphosphate induced; format: cell-based, Human; design: key: (-): Inhibition; (+): No inhibition
# Excerpt: as §1, §2
# [4] = tested on: respiratory depression produced by arachidonate; assay: Inhibition of respiratory depression produced by arachidonate in mice, in vivo; design: species or system Swiss, male, albino mice; conditions: 2 hours before 50 mg/kg i.v. sodium arachidonate
# Method: Swiss, male, albino mice, weighing about 20 g, are placed in control and drug groups, each with 4-6 mice and fasted. The drug mice are dosed with 50, 25, 10, or 1 mg/kg of a test compound suspended in volumes of 0.5, 0.25, or 0.10 ml of 2% starch solution. Control animals receive starch solution alone. After 2 hours all the mice are challenged with an intravenous dose of 50 mg/kg of sodium arachidonate in a volume of 0.2 ml, by tail vein. The onset of effect and duration of respiratory depression and recovery or death is quantitated. The percent inhibition of respiratory depression is computed from the mean of the drug group and the mean of the control group. Compounds giving 30% or more inhibition at 25 mg/kg or less are considered active.
# [5] = tested on: bronchospasms elicited by acetylcholine; assay: Bronchodilator activity (Konzett procedure) against acetylcholine; format: in vivo, guinea pigs; conditions: Cavia porcellus; three logarithmic cumulative intravenous doses; spasmogen acetylcholine i.v.
# Method: (§3) Bronchodilator activity is determined in guinea pigs against bronchospasms elicited by intravenous injections of 5-hydroxytryptamine, histamine or acetylcholine by the Konzett procedure. [See J. Lulling, P. Lievens, F. El Sayed and J. Prignot, Arzeneimittel-Forschung, 18, 995 (1968).] In Table D, bronchodilator activity for representative compounds of this invention against one or more of the three spasmogenic agents is expressed as an ED50 determined from the results obtained with three logarithmic cumulative intravenous doses.
# [6] = tested on: bronchospasms elicited by histamine; assay: Bronchodilator activity (Konzett procedure) against histamine; format: in vivo, guinea pigs; conditions: Cavia porcellus; three logarithmic cumulative intravenous doses; spasmogen histamine i.v.
# Method: as §3
# [7] = tested on: bronchospasms elicited by 5-hydroxytryptamine; assay: Bronchodilator activity (Konzett procedure) against 5-hydroxytryptamine; format: in vivo, guinea pigs; conditions: Cavia porcellus; three logarithmic cumulative intravenous doses; spasmogen 5-hydroxytryptamine i.v.
# Method: as §3
smiles,measurement,setting,value
"CCCC[C@@H]1CCC[C@]1(O)/C=C/[C@H]1CCC(=O)[C@@H]1CCCCCCC(=O)OCC (relative stereo) [Ethyl nat-15R,16R(and ent-15S,16S)-15-hydroxy-9-oxo-15,16-trimethylene-13-trans-prostenoate]",Duration in Minutes of at Least 10% Depression,[1]; dose 4.0 mg/kg,4 min
same,Percent Depression of Mean Arterial Blood Pressure,[1]; dose 4.0 mg/kg,-16%
"CCCC[C@H]1CCC[C@@]1(O)/C=C/[C@H]1CCC(=O)[C@@H]1CCCCCCC(=O)OCC (relative stereo) [Ethyl nat-15S,16S(and ent-15R,16R)-15-hydroxy-9-oxo-15,16-trimethylene-13-trans-prostenoate]",Duration in Minutes of at Least 10% Depression,[1]; dose 1.6 mg/kg,5 min
same,Percent Depression of Mean Arterial Blood Pressure,[1]; dose 1.6 mg/kg,-43%
"O=C(O)CCCCCC[C@H]1C(=O)CC[C@@H]1/C=C/C1=CCCCC1 (relative stereo) [nat(and ent)-9-oxo-15,16-Tetramethylene-17,18,19,20-tetranor-15,13-trans-prostadienoic Acid]","Inhibition of Platelet Aggregation - In Vitro, Collagen",[2]; drug concentration 25 μg/ml,(-)
same,"Inhibition of Platelet Aggregation - In Vitro, Collagen",[2]; drug concentration 250 μg/ml,(-)
same,"Inhibition of Platelet Aggregation - In Vitro, Adenosine Diphosphate",[3]; drug concentration 25 μg/ml,(-)
same,"Inhibition of Platelet Aggregation - In Vitro, Adenosine Diphosphate",[3]; drug concentration 250 μg/ml,(-)
same,"Inhibition of Respiratory Depression - In Vivo, Percent Inhibition",[4]; 25 mg/kg,28%
"O=C(O)CCC/C=C\C[C@H]1C(=O)C[C@@H](O)[C@@H]1/C=C/C1(O)CCCCC1 (relative stereo) [nat(and ent)-11α,15-Dihydroxy-9-oxo-15,16-tetramethylene-17,18,19,20-tetranor-5-cis,13-trans-prostadienoic Acid]","Inhibition of Platelet Aggregation - In Vitro, Collagen",[2]; drug concentration 0.25 μg/ml,(+)
same,"Inhibition of Platelet Aggregation - In Vitro, Collagen",[2]; drug concentration 2.5 μg/ml,(-)
same,"Inhibition of Platelet Aggregation - In Vitro, Collagen",[2]; drug concentration 25 μg/ml,(-)
same,"Inhibition of Platelet Aggregation - In Vitro, Collagen",[2]; drug concentration 250 μg/ml,(-)
same,ED50,[5],0.115 µg/kg
same,"Inhibition of Platelet Aggregation - In Vitro, Adenosine Diphosphate",[3]; drug concentration 0.25 μg/ml,(+)
same,"Inhibition of Platelet Aggregation - In Vitro, Adenosine Diphosphate",[3]; drug concentration 2.5 μg/ml,(-)
same,"Inhibition of Platelet Aggregation - In Vitro, Adenosine Diphosphate",[3]; drug concentration 25 μg/ml,(-)
same,"Inhibition of Platelet Aggregation - In Vitro, Adenosine Diphosphate",[3]; drug concentration 250 μg/ml,(-)
same,Duration in Minutes of at Least 10% Depression,[1]; dose 2.2 mg/kg,23 min
same,Percent Depression of Mean Arterial Blood Pressure,[1]; dose 2.2 mg/kg,-31%
same,"Inhibition of Respiratory Depression - In Vivo, Percent Inhibition",[4]; 10 mg/kg,6%
same,"Inhibition of Respiratory Depression - In Vivo, Percent Inhibition",[4]; 25 mg/kg,14%
"O=C(O)CCCCCC[C@H]1C(=O)C[C@@H](O)[C@@H]1/C=C/C1(O)CCCCC1 (relative stereo) [nat(and ent)-11α,15-Dihydroxy-9-oxo-15,16-tetramethylene-17,18,19,20-tetranor-13-trans-prostenoic Acid]","Inhibition of Platelet Aggregation - In Vitro, Collagen",[2]; drug concentration 0.25 μg/ml,(+)
same,"Inhibition of Platelet Aggregation - In Vitro, Collagen",[2]; drug concentration 2.5 μg/ml,(-)
same,"Inhibition of Platelet Aggregation - In Vitro, Collagen",[2]; drug concentration 25 μg/ml,(-)
same,"Inhibition of Platelet Aggregation - In Vitro, Collagen",[2]; drug concentration 250 μg/ml,(-)
same,"Inhibition of Platelet Aggregation - In Vitro, Adenosine Diphosphate",[3]; drug concentration 0.25 μg/ml,(+)
same,"Inhibition of Platelet Aggregation - In Vitro, Adenosine Diphosphate",[3]; drug concentration 2.5 μg/ml,(-)
same,"Inhibition of Platelet Aggregation - In Vitro, Adenosine Diphosphate",[3]; drug concentration 25 μg/ml,(-)
same,"Inhibition of Platelet Aggregation - In Vitro, Adenosine Diphosphate",[3]; drug concentration 250 μg/ml,(-)
same,Duration in Minutes of at Least 10% Depression,[1]; dose 2.1 mg/kg,16 min
same,Percent Depression of Mean Arterial Blood Pressure,[1]; dose 2.1 mg/kg,-39%
"O=C(O)CCC/C=C\C[C@H]1C(=O)C=C[C@@H]1/C=C/C1(O)CCCCC1 (relative stereo) [nat(and ent)-15-Hydroxy-9-oxo-15,16-tetramethylene-17,18,19,20-tetranor-13-trans,5-cis,10-prostatrienoic acid]",ED50,[6],0.632 µg/kg
same,ED50,[7],> 3.2 µg/kg
same,"Inhibition of Platelet Aggregation - In Vitro, Collagen",[2]; drug concentration 25 μg/ml,(+)
same,"Inhibition of Platelet Aggregation - In Vitro, Collagen",[2]; drug concentration 250 μg/ml,(-)
same,ED50,[5],> 3.2 µg/kg
same,"Inhibition of Platelet Aggregation - In Vitro, Adenosine Diphosphate",[3]; drug concentration 25 μg/ml,(+)
same,"Inhibition of Platelet Aggregation - In Vitro, Adenosine Diphosphate",[3]; drug concentration 250 μg/ml,(-)
"O=C(O)CCCCCC[C@H]1C(=O)CC[C@@H]1/C=C/C1(O)CCCCC1 (relative stereo) [nat(and ent)-15-Hydroxy-9-oxo-15,16-tetramethylene-17,18,19,20-tetranor-13-trans-prostenoic Acid]","Inhibition of Platelet Aggregation - In Vitro, Collagen",[2]; drug concentration 0.25 μg/ml,(+)
same,"Inhibition of Platelet Aggregation - In Vitro, Collagen",[2]; drug concentration 2.5 μg/ml,(+)
same,"Inhibition of Platelet Aggregation - In Vitro, Collagen",[2]; drug concentration 25 μg/ml,(-)
same,"Inhibition of Platelet Aggregation - In Vitro, Collagen",[2]; drug concentration 250 μg/ml,(-)
same,"Inhibition of Platelet Aggregation - In Vitro, Adenosine Diphosphate",[3]; drug concentration 0.25 μg/ml,(+)
same,"Inhibition of Platelet Aggregation - In Vitro, Adenosine Diphosphate",[3]; drug concentration 2.5 μg/ml,(+)
same,"Inhibition of Platelet Aggregation - In Vitro, Adenosine Diphosphate",[3]; drug concentration 25 μg/ml,(-)
same,"Inhibition of Platelet Aggregation - In Vitro, Adenosine Diphosphate",[3]; drug concentration 250 μg/ml,(-)
same,Duration in Minutes of at Least 10% Depression,[1]; dose 1.8 mg/kg,4 min
same,Percent Depression of Mean Arterial Blood Pressure,[1]; dose 1.8 mg/kg,-9%
same,"Inhibition of Respiratory Depression - In Vivo, Percent Inhibition",[4]; 1 mg/kg,33%
"CCCC[C@H]1CCC[C@@]1(O)/C=C/[C@H]1CCC(=O)[C@@H]1CCCCCCC(=O)O (relative stereo) [nat-15S,16S(and ent-15R,16R)-15-Hydroxy-9-oxo-15,16-trimethylene-13-trans-prosenoic Acid]",ED50,[7],0.112 µg/kg
same,ED50,[5],0.413 µg/kg
"CCCCC1CCCC1(O)/C=C/C1CCC(=O)C1CCCCCCC(=O)OCC [Ethyl nat-15S,16R(and ent-15R,16S)-15-hydroxy-9-oxo-15,16-trimethylene-13-trans-prostenoate and Ethyl nat-15R,16S(and ent-15S,16R)-15-hydroxy-9-oxo-15,16-trimethylene-13-trans-prostenoate]",Duration in Minutes of at Least 10% Depression,[1]; dose 1.9 mg/kg,7 min
same,Percent Depression of Mean Arterial Blood Pressure,[1]; dose 1.9 mg/kg,-18%
"CCCCC1CCCC1(O)/C=C/C1CCC(=O)C1CCCCCCC(=O)O [nat-15S,16R(and ent-15R,16S) and nat-15R,16S(and ent-15S,16R)-15-Hydroxy-9-oxo-15,16-trimethylene-13-trans-prostenoic Acid]",ED50,[7],0.32 µg/kg
same,Duration in Minutes of at Least 10% Depression,[1]; dose 2.0 mg/kg,4 min
same,Percent Depression of Mean Arterial Blood Pressure,[1]; dose 2.0 mg/kg,-38%
"CCCCC1CCCC1(O)/C=C/C1C(O)CC(=O)C1C/C=C\CCCC(=O)O [nat-15S,16R(and ent-15R,16S) and nat-15R,16S-(and ent-15S,16R)-11α,15-Dihydroxy-9-oxo-15,16-trimethylene-13-trans-5-cis-prostadienoic Acid]","Inhibition of Platelet Aggregation - In Vitro, Collagen",[2]; drug concentration 250 μg/ml,(+)
same,"Inhibition of Platelet Aggregation - In Vitro, Adenosine Diphosphate",[3]; drug concentration 25 μg/ml,(+)
same,"Inhibition of Platelet Aggregation - In Vitro, Adenosine Diphosphate",[3]; drug concentration 250 μg/ml,(-)
same,Duration in Minutes of at Least 10% Depression,[1]; dose 1.7 mg/kg,> 10 min
same,Percent Depression of Mean Arterial Blood Pressure,[1]; dose 1.7 mg/kg,-47%
